ChEMBL document CHEMBL2380192, “Structure-activity relationship of potent antimicrobial peptide analogs of Ixosin-B amide” (Bioorg Med Chem Lett, 2013)
≈ marks a conversion by molar mass, not a printed value. Calls of active or inactive are those of the source. No cut-off for these calls is given here.

Tests used:
Pseudomonas aeruginosa = assay: Antimicrobial activity against Pseudomonas aeruginosa ATCC 27853 after 18 to 20 hrs by macrobroth dilution method; format: functional
Staphylococcus aureus = assay: Antimicrobial activity against Staphylococcus aureus ATCC 25923 after 18 to 20 hrs by macrobroth dilution method; format: functional
Escherichia coli [1] = assay: Antimicrobial activity against Escherichia coli ATCC 25922 after 18 to 20 hrs by macrobroth dilution method; format: functional
[2] = Toxicity against human RBCs assessed as hemolysis at 100 uM after 1 hr by spectrophotometry; format: cell-based, Erythrocyte; details: red blood cells (RBCs), read-out: Activity
Escherichia coli [3] = assay: Induction of inner membrane permeabilization in Escherichia coli ML-35p at 1 uM measured every 2 mins by beta-galactosidase/ONPG hydrolysis assay; format: functional, organism-based
Escherichia coli [4] = assay: Induction of outer membrane permeabilization in Escherichia coli ML-35p at 1 uM measured every 2 mins by beta-lactamase/nitrocefin hydrolysis assay; format: functional, organism-based
Escherichia coli [5] = assay: Induction of outer membrane permeabilization in Escherichia coli ML-35p at 40 to 100 uM measured every 2 mins by beta-lactamase/nitrocefin hydrolysis assay; format: functional, organism-based
Escherichia coli [6] = assay: Induction of inner membrane permeabilization in Escherichia coli ML-35p at 10 to 100 uM measured every 2 mins by beta-galactosidase/ONPG hydrolysis assay; format: functional, organism-based
Escherichia coli [7] = assay: Induction of outer membrane permeabilization in Escherichia coli ML-35p at 10 to 20 uM measured every 2 mins by beta-lactamase/nitrocefin hydrolysis assay; format: functional, organism-based

Row | Compound | MIC90 (Pseudomonas aeruginosa) | MIC90 (Staphylococcus aureus) | MIC90 (Escherichia coli [1]) | hemolysis at 1 h, 100 µM [2] | Activity (Escherichia coli [3]) | Activity (Escherichia coli [4]) | Activity (Escherichia coli [5]) | Activity (Escherichia coli [6]) | Activity (Escherichia coli [7])
1 | H-QLKVDLWGTRSGIQPEQHSSGKSDVRRWRSRY-NH2 [Ixosin-B-amide] | > 100 µM | > 100 µM | 80 µM | – | – | – | – | – | –
2 | GENTAMICIN | 0.35 µM | 0.1 µM | 1 µM | – | – | – | – | – | –
3 | H-GKSDVRRWRSRY-OH | > 100 µM | > 100 µM | > 100 µM | – | – | – | – | – | –
4 | H-SGIQPEQHSS-OH | > 100 µM | > 100 µM | > 100 µM | – | – | – | – | – | –
5 | H-WKSYVRRWRSRY-OH | 100 µM | 32 µM | 16 µM | 1.5% | – | – | – | – | –
6 | H-WKSYVRRW-OH | > 100 µM | 100 µM | 64 µM | 2% | – | – | – | – | –
7 | H-QLKVDLWGTR-OH | > 100 µM | > 100 µM | > 100 µM | – | – | – | – | – | –
8 | H-WWSYVRRWRSR-OH | > 100 µM | 8 µM | 16 µM | 3.4% | inactive | inactive | Active | Active | Active
9 | H-WKSYVRRWRSR-OH | > 100 µM | 32 µM | 16 µM | -1.2% | – | – | – | – | –
10 | H-WKSYVRRWRS-OH | > 100 µM | > 100 µM | 64 µM | -0.4% | – | – | – | – | –
11 | H-EQHSSGKSDV-OH | > 100 µM | > 100 µM | > 100 µM | – | – | – | – | – | –
12 | H-WKSYVRRWR-OH | > 100 µM | 64 µM | 64 µM | 1.1% | – | – | – | – | –
13 | H-WKSDVRRWRSRY-OH | > 100 µM | > 100 µM | 64 µM | 0.3% | – | – | – | – | –
14 | H-LWGTRSGIQP-OH | > 100 µM | > 100 µM | > 100 µM | – | – | – | – | – | –
15 | CC1(C)S[C@@H]2[C@H](NC(=O)Cc3ccccc3)C(=O)N2[C@H]1C(=O)O [PENICILLIN G] | > 100 µM | 0.125 µM (≈ 0.0418 µg/mL) | > 100 µM | – | – | – | – | – | –
16 | H-KKSYVRRWRS-OH | > 100 µM | > 100 µM | > 100 µM | -0.6% | – | – | – | – | –
